Laboratory results published in patent US20240238255A1, “KL1333 FOR USE IN MEDICINE” (ABLIVA AB, priority 2021, published 2024).

How the values were obtained:
[1] = system: patients with primary mitochondrial disease; test: 30 Second Sit-to-Stand Test in primary mitochondrial disease patients; format: in vivo, human; conditions: 50 mg QD for 10 days, versus placebo; number of sit to stand repetitions
[2] = system: patients with primary mitochondrial disease; test: NeuroQoL Short Form Fatigue in primary mitochondrial disease patients; format: in vivo, human
[3] = system: healthy subjects; test: Safety and tolerability in healthy subjects (Parts A, B, D); format: in vivo, human
Protocol: Part A will comprise a randomised, single-dose, single-sequence, placebo-controlled study. Eight healthy subjects will be studied in a single cohort (Group A1). Potential subjects will be screened to assess their eligibility to enter the study within 28 days prior to the first dose administration. Subjects will participate in 2 treatment periods. For each treatment period, subjects will reside at the Phase I clinical site from Days −1 to 3 (48 hours postdose). Subjects will return to the clinical site for outpatient visits on Days 4 and 5. There will be at least a 10-day washout between doses (from Period 1, Day 1 to Period 2, Day 1).
Six subjects will be randomised to receive 25 mg KL1333 and 2 subjects will be randomised to receive placebo, and subjects will receive the same treatment in both treatment periods. On Treatment Period 1, Day 1, subjects will receive a single oral dose of study drug following an overnight fast of at least 8 hours. On Treatment Period 2, Day 1, subjects will receive a single oral dose of study drug after consuming a standard high-fat breakfast. Following review of safety, tolerability, and PK data, up to 2 additional dose cohorts of healthy subjects may be added if needed to determine the study treatment for
Part B will comprise a randomised, multiple-dose, sequential-group, placebo-controlled study. Sixteen healthy subjects will be studied in 2 cohorts (Groups B1 and B2), with each cohort consisting of 8 subjects. Part B may start after completion of Group A1, at a dose equal to or less than given in Part A.
On Day 1, 6 subjects will be randomised to receive KL1333 and 2 subjects will be randomised to receive placebo. The preliminary planned doses of KL1333 for Groups B1 and B2 are 25 and 50 mg, respectively, once daily (QD) on Days 1 to 10. Dose levels, dose frequency, and dietary state will be confirmed following review of safety, tolerability, and PK data from Part A and ongoing data from Part B. Additionally, a dose selection conference meeting will be held before each cohort in Part B where blinded data from the previous cohort will be reviewed before a decision is made about proceeding to the next cohort. Following review of safety, tolerability, and PK data, up to 3 additional dose cohorts of healthy subjects may be added to further explore the PK, safety, and tolerability of KL1333. If additional cohorts are required, each cohort will consist of 8 subjects, with 6 subjects receiving KL1333 and 2 subjects receiving placebo. The dose level will not exceed 600 mg, and the predicted exposure following multiple daily dose administration in any subject in Part B will not exceed an AUC0-24 of 51,800 ng.h/mL for derived total KL1333. There will be a minimum of 6 days between dose escalations for each cohort (between the last dose of one cohort and the first dose of the next cohort). Subjects will return for a Follow-up visit on Day 15, 5 days after their final dose.
Part D will comprise a randomised, multiple-dose, placebo-controlled study. Sixteen healthy subjects will be studied in 2 cohorts (Groups D1 and D2), with each cohort consisting of 8 subjects. Part D will start after completion of Part B, and the Part D groups may be run in parallel.
On Day 1, 6 subjects will be randomised to receive KL1333 and 2 subjects will be randomised to receive placebo. The doses of KL1333 for Groups D1 and D2 are 75 mg twice daily (BID) and 50 mg 3 times daily (TID), respectively, on Days 1 to 10 with a single dose administration on Day 10.
The safety and tolerability of KL1333 in healthy volunteers was explored at multiple ascending doses in part B and D of the study. Part D specifically explored if tolerability was improved by dividing the daily dose into two and three administrations respectively. Cohorts B3, D1 and D2 all received total daily doses of 150 mg for 10 days. Cohort B3 received 150 mg once daily (QD), cohort D1 received 75 mg twice daily (BID), and cohort D2 50 mg three times daily (TID). […]

[4] = system: patients with primary mitochondrial disease; test: Safety and tolerability in patients with primary mitochondrial disease (Part C); format: in vivo; conditions: multiple oral QD doses of 50 mg for 10 days
Excerpt: (§1) Part C will comprise a randomised, multiple-dose, single-group, placebo-controlled study. A total of 8 patients diagnosed with any mitochondrial disease will be enrolled in this part of the study. Part C may start after the dose selection conference has been completed for the final cohort of Part B, at a daily dose no higher than the highest well-tolerated dose in Part B.
Two patients will be initially dosed, with 1 patient receiving KL1333 and 1 patient receiving placebo. If there are no safety or tolerability concerns in these patients following the Day 4 visit, the remaining 6 patients, with 5 patients receiving KL1333 and 1 patient receiving placebo, will be enrolled on a rolling basis. In the event there are safety concerns following completion of the 2 sentinel patients without meeting stopping criteria, the Sponsor may add intermediate cohorts if the safety evaluation in intermediate cohorts will be needed. The dosing schedule of intermediate cohorts will be the same as that of the planned cohort. The schedule of safety assessments of intermediate cohorts will be the same as that of the planned cohort as a general rule. Whether or not to add safety assessments in the intermediate cohorts will be determined by the Sponsor.
It is planned for patients to receive study drug QD on Days 1 to 10. […]

[5] = Drug substance properties; format: physicochemical; conditions: crystalline powder
Excerpt: KL-1333 is a drug substance with a molecular mass of 240.26 g/mol. […] It is manufactured via multi-step chemical synthesis.

[6] = system: blood lactate/pyruvate ratio; test: Blood lactate/pyruvate ratio in healthy volunteers; format: in vivo, human
Protocol: FIG. 5. Healthy volunteers were treated with KL1333 (n=36) or placebo (n=14) once daily for 9 days prior to blood sampling for measurement of lactate and pyruvate concentrations and calculation of a lactate pyruvate ratio. Data for different doses of KL1333 were combined, including 50 mg QD, 50 mg TID, 75 mg QD, 75 mg BID, 150 mg QD and 250 mg QD.
FIG. 6. The blood lactate/pyruvate concentration ratio decreased with increasing concentration of KL1333 in plasma Day 10 after treatment with KL1333. Healthy volunteers were treated with KL1333 (n=36) or placebo (n=14) once daily for 9 days prior to blood sampling for measurement of lactate and pyruvate concentrations and calculation of a lactate pyruvate ratio. Data for different doses of KL1333 were combined from 7 cohorts consisting of two placebo and 6 KL1333 subjects, treated with 25 mg QD, 50 mg QD, 50 mg TID, 75 mg QD, 75 mg BID, 150 mg QD and 250 mg QD. Data were normalized against the cohort mean value for each cohort.
(§2) For Parts B through D, blood biomarker assessments will include: • nicotinamide adenine dinucleotide (oxidized form; NAD^+)/nicotinamide adenine dinucleotide (reduced form; NADH) concentrations and ratio • fibroblast growth factor-21 (FGF21) • growth/differentiation factor-15 (GDF15) • lactate/pyruvate concentrations and ratio.

[7] = Plasma exposure of Total KL1333, Part C patients with primary mitochondrial disease; conditions: human, in vivo
Excerpt: as §1
It is planned for patients to receive study drug QD on Days 1 to 10. Dose levels, dose frequency, and dietary state will be confirmed following review of safety, tolerability, and PK data from Part B, and unless deemed very unfavourable for the conduct of the study, the patients will not be required to be fasting prior to dosing. Study drug will be administered by clinical site staff when the patients are resident at the clinical site or return for outpatient visits. On all other days, patients will record drug administration and any concomitant medications in a diary that will be provided to each patient. Diaries will be reviewed and checked for compliance during the outpatient visits and as part of the check-in procedures on Day 10. Clinical symptoms that occur while patients are not resident at the site will be collected by the site using standard adverse event (AE) reporting procedures. […]

[8] = system: patients with primary mitochondrial disease; test: Daily Fatigue Impact Scale (D-FIS) in primary mitochondrial disease patients; format: in vivo, human
[9] = system: patients with primary mitochondrial disease; test: Clinical outcome assessments overall in primary mitochondrial disease patients; format: in vivo, human
[10] = system: cells derived from patients with MELAS; test: Cellular models, including cells derived from patients with MELAS; format: cell-based, human; conditions: including MELAS patient-derived cells
[11] = system: lactate/pyruvate ratio, serum niacinamide, serum xanthine; test: Blood and serum biomarkers in PMD patients; format: in vivo, human
Protocol: FIG. 7. Lactate/Pyruvate ratio in PMD patients treated daily with 50 mg KL1333 (n=6) or placebo (n=2) for 10 days.
FIG. 8. Serum niacinamide is an early biomarker of response to KL1333 treatment. PMD patients were treated with 50 mg KL1333 QD (n=6) or placebo (n=2). The data are expressed as the ratio of the niacinamide concentrations in Day 2 and Day 1 serum samples.
FIG. 9. Serum xanthinse is an early biomarker of response to KL1333 treatment. PMD patients were treated with 50 mg KL1333 QD (n=6) or placebo (n=2). The data are expressed as the ratio of the xanthine concentrations in Day 2 and Day 1 serum samples.
as §2

[12] = molecular target: NQO1 (Homo sapiens, UniProt P15559); test: NQO1 substrate activity; format: biochemical; conditions: compared with other NQO1 active compounds (ie, idebenone)
Excerpt: KL1333 is a novel compound under development for primary mitochondrial diseases. KL1333 acts as a substrate for NAD(P)H:dehydrogenase [quinone]1 (NQO1), which produces nicotinamide adenine dinucleotide (oxidized form; NAD^+) by transferring 2 electrons to KL1333 using nicotinamide adenine dinucleotide (reduced form; NADH) as a cofactor. KL1333 transfers these electrons to the mitochondrial electron transport system, directly promoting ATP production. Additionally, the elevated NAD^+ levels lead to activation of mitochondrial biogenesis pathways, such as sirtuin 1 (SIRT1), 5′-adenosine monophosphate-activated protein kinase (AMPK), and peroxisome proliferator-activated receptor gamma coactivator 1-alpha (PGC-1α), thereby improving mitochondrial function.

[13] = 50 mg once daily, 10 days of dosing, PMD patients
[14] = 50 mg QD, after one day of treatment (Day 2/Day 1)

Sequence of NQO1 (P15559 whole entry, species assumed): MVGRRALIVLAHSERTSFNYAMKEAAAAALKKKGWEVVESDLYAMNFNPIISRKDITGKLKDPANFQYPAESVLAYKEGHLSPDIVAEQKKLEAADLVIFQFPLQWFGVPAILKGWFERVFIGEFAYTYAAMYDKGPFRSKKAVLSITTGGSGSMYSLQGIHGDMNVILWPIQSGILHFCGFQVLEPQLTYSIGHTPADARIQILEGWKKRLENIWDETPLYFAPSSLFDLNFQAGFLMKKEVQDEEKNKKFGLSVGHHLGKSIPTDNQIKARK

In the case of CC(C)c1nc2c([nH]1)C(=O)C(=O)c1ccccc1-2 [KL1333], the “30s Sit-to-stand test, mean change” value [1] is reported as “greater improvement”, the “NeuroQoL Short Form Fatigue, mean change” value ([2]; 50 mg QD for 10 days, baseline to day 10, n=6 versus placebo n=2) is reported as “improvement” and the “NeuroQol fatigue change from baseline, high exposure group versus placebo” value ([2]; 50 mg QD for 10 days, high exposure patients, Kruskal-Wallis test) is reported as “statistically significant better than placebo”. The “correlation of NeuroQol SF Fatigue raw score change with Total KL1333 Ctrough” value ([2]; change from baseline to day 10, Ctrough at day 10) was “statistically significant correlation”, the “frequency and severity of loose stool episodes (Bristol Stool chart)” value ([3]; 150 mg daily for 10 days: 75 mg BID and 50 mg TID versus 150 mg QD) was “improved” and the tolerability ([3]; QD doses of 150 mg, healthy subjects) was “tolerated”. The tolerability ([3]; QD doses of 250 mg, healthy subjects, GI TEAEs) was “poorly tolerated”, the tolerability ([3]; QD doses of 25 to 75 mg, healthy subjects) was “well tolerated” and the “tolerability of BID or TID versus QD dosing” value ([3]; daily doses of 150 mg, healthy subjects, GI-related adverse events) was “better tolerated”. For the same compound, the “clinical chemistry, hematology, urinalysis data” value ([3]; mean or individual subject data during the study) was “no apparent treatment- or dose-related trends”, the tolerability ([3]; single oral doses of 25 mg with or without food, healthy subjects) was “well tolerated” and the “vital signs, 12-lead ECGs, physical examinations” value ([3]; whole study) was “no apparent treatment- or dose-related trends”. For the same compound, the serious adverse events ([3]; whole study: 64 healthy volunteers and 8 patients, KL1333 or placebo) was “no serious adverse events”, the tolerability [4] was “well tolerated” and the hygroscopicity [5] was “non-hygroscopic”. The solubility in water [5] was “practically insoluble”, the “blood lactate pyruvate ratio in relation to plasma concentration of KL1333” value ([6]; Day 10, plasma concentration prior to blood sampling) was “lowest in individuals with a plasma concentration of KL1333 exceeding 100 ng/ml” and the blood lactate/pyruvate ratio ([6]; after 10 days of treatment, doses combined (n=36 versus placebo n=14)) was “trend of decreasing”. For the same compound, the “pharmacokinetics profile, healthy volunteers versus patients” value [7] was “similar”, the “Daily Fatigue Impact Scale, mean change” value ([8]; 50 mg QD for 10 days, versus placebo, reduction of fatigue impacts on daily activities) was “greater improvement” and the “correlation of DFIS change with Total KL1333 Ctrough” value ([8]; change from day-1 to day 10, Ctrough at day 10) was “statistically significant correlation”. For the same compound, the fatigue [9, 13] was “marked improvement in fatigue”, the muscle strength [9, 13] was “marked improvement in muscle strength” and the “combatting fatigue and muscle weakness” value ([9]; clinical outcome assessments of primary mitochondrial disease patients) was “effective”. For the same compound, the ATP [10] was “increased ATP”, the “NAD+” value [10] was “increased NAD^+” and the ROS [10] was “decreased ROS”. For the same compound, the “SIRT1, AMPK and PGC-1α activation” value [10] was “activation of SIRT1, AMPK, and PGC-1α”, the lactic acid [10] was “decreased lactic acid” and the “mitochondrial oxidative phosphorylation function” value [10] was “improved mitochondrial oxidative phosphorylation function”. For the same compound, the serum niacinamide [11, 14] was “increased”, the serum xanthine [11, 14] was “increased” and the “lactate/pyruvate ratio, Day 10 compared to Day 1” value ([11]; 50 mg daily for 10 days (n=6), not seen in placebo) was “decreased”. For the same compound, the “potency as substrate to NQO1” value [12] was “more potent substrate to NQO1 than other NQO1 active compounds”.
